Measurements reported in patent publication US5364867A, “4-phenylpiperdine agents for treating cns disorders” (Sterling Winthrop Inc., priority 1992, dated 1994).
Counter-ions that a name gives are not always drawn.

What follows are molecules tested against sigma receptors (assay: sigma receptor binding, [3H]di(2-tolyl)-guanidine (DTG) assay, guinea pig brain membranes). Details: [3H]DTG approximately 4 nM; male Hartley guinea pig brain membranes; 25° C. for 90 min; nonspecific binding 10 μM haloperidol.
Experimental: Brain tissue was prepared from male Hartley guinea pigs (Hazelton Labs, Denver, Pa.) which were anesthetized with CO2 and sacrificed by decapitation. All animal care and use procedures were in accord with the "Guide for the Care and Use of Laboratory Animals" (NIH Publ. No. 86-23, 1985). Homogenization was performed in 10 volumes (wt/vol) of 0.32M sucrose with a Brinkmann Polytron at setting 5, 30 sec. The homogenate was centrifuged at 900×g for 10 min at 4° C., and the supernatant was collected and centrifuged at 22,000×g for 20 min at 4° C. The pellet was resuspended in 10 volumes of Tris-HCl buffer (50 mM, pH 7.4), incubated at 37° C. for 30 min and centrifuged at 22,000×g for 20 min at 4° C. Following this, the pellet was resuspended in Tris buffer and frozen in 5-10 mL aliquots corresponding to a tissue concentration of 100 mg/mL at -70° C. Binding characteristics of the membranes were stable for at least one month when stored at -70° C.
On the day of the assay, membrane aliquots were thawed, resuspended in fresh Tris buffer and stored on ice until use. Each assay tube contained 100 μL of [^3 H](+)pentazocine at a final concentration of approximately 0.5 nM, [^3 H]di(2-tolyl)-guanidine (DTG) at a final concentration of approximately 4 nM, 100 μL of various concentrations of the compounds of interest, 500 μL of the tissue suspension and 300 μL of buffer to a final assay volume of 1 mL and a final tissue concentration of approximately 8 mg/tube, corresponding to approximately 0.15 mg protein/tube. Nonspecific binding was defined by addition of a final concentration of 1 μM haloperidol to blank tubes for the [^3 H](+)pentazocine assay or by addition at a final concentration of 10 μM haloperidol to blank tubes for [^3 H] DTG assay. All tubes were incubated at 37° C. for 150 min ([^3 H](+)pentazocine) or at 25° C. for 90 min ([^3 H]DTG) before termination of the reaction by filtration over Whatman GF/B glass fiber filters that were presoaked in a solution of 0.5% polyethyleneimine for at lease 1 hr prior to use. Filters were washed with three 4 mL volumes of cold Tris-HCl buffer.
Following addition of scintillation cocktail, samples were allowed to equilibrate for at least 4 hr. The amount of bound radioactivity was determined by liquid scintillation spectrometry using a Beckman LS 5000 TA liquid scintillation counter with an efficiency for tritium of approximately 60%. The results are reported as a percent (%) inhibit ion of binding at 10 μM.
Data obtained on the compounds in the di(2-tolyl)guanidine (DTG) and d-pentazocine (+Pent) assays are expressed as a Ki value in nM. The number of determinations follow this value in parentheses.

SMILES	Ki
CCOC(=O)C1(c2ccccc2)CCN(CCCc2ccccc2)CC1 [Example 7, Ethyl 4-Phenyl-1-(3-phenylpropyl)-4-piperidinecarboxylate]	88.9 nM
O=C(O)C1(c2ccccc2)CCN(CCCc2ccccc2)CC1 [Example 2a, 4-phenyl-1-(3-phenylpropyl)-4-piperidinecarboxylic acid]	16.4 nM
O=C(c1ccccc1)C1(c2ccccc2)CCN(CCCc2ccccc2)CC1 [Example 4, 4-benzoyl-4-phenyl-1-(3-phenylpropyl)piperidine]	22.1 nM
Oc1cccc(C2CCN(CCCc3ccccc3)CC2)c1 [Example 3b, 4-(3-hydroxyphenyl)-1-(3-phenylpropyl)piperidine hydrochloride]	0.65 nM
O=C(CCc1ccccc1)N1CCC(O)(c2ccccc2)CC1 [Example 1, 4-Phenyl-4-hyroxy-1-(3-phenylpropionyl) piperidine]	34400 nM
O=C(N1CCCC1)C1(c2ccccc2)CCN(CCCc2ccccc2)CC1 [Example 2b, 4-Phenyl-1-(3-phenylpropyl)-4-(1-pyrrolidinylcarbonyl)piperidine]	116 nM
COc1cccc(C2CCN(CCCc3ccccc3)CC2)c1 [Example 3a, 4-(3-methoxyphenyl)-1-(3-phenylpropyl)piperidine hydrochloride]	2.21 nM
CCC(=O)OC1(c2ccccc2)CCN(CCC(=NO)c2ccccc2)CC1 [Example 6, 4-Phenyl-1-(3-oximino-3-phenylpropyl)-4-propionoxypiperidine]	589 nM
CCC(=O)C1(c2ccccc2)CCN(CCCc2ccccc2)CC1 [Example 5, 4-Phenyl-1-(3-phenylpropyl)-4-propionylpiperidine]	9.1 nM
